Experimental findings from PMC3731320, “Identification of Benzimidazole Diamides as Selective Inhibitors of the Nucleotide-Binding Oligomerization Domain 2 (NOD2) Signaling Pathway” (PLoS ONE, 2013) are described below.

Format in all cases: cell-based, human
For assay [1], the system named is NOD2. Briefly: MDP-stimulated IL-8 release in 293/hNOD2 cells (HTRF). The following applies: for IC50: Homo sapiens. The protocol: (§1) After 24 hours the amount of IL-8 secreted into the medium was determined by homogeneous time resolved fluorescence (HTRF) assay by the direct addition of a 1:1 mix of europium cryptate and XL665-conjugated anti-IL-8 antibodies according to the manufacturer's instructions (Cisbio).

The subject of assay [2] is NOD1. Briefly: iE-DAP-stimulated IL-8 release in 293/hNOD1 cells (HTRF). Conditions: 60 ng/mL iE-DAP. The method, then:
as §1

Assay [3] relates to NOD1. Briefly: Tri-DAP-stimulated IL-8 release in HCT116 cells (endogenous NOD1). The method, then:
Compound activity on endogenous NOD1 and NOD2 receptors was determined by inhibition of either Tri-DAP or MDP-stimulated IL-8 release, respectively, using HCT116 human colon carcinoma cells. […] The cells were maintained in DMEM high glucose medium supplemented with 25 mM HEPES and 10% FBS. For assay, cells were seeded into 96 well plates (90,000 cells/well) in DMEM containing 1% FBS and pre-incubated with compounds for 1 hour before addition of either 1 μg/mL MDP or 25 μg/mL Tri-DAP. The level of IL-8 released into medium after 24-hour incubation was determined by HTRF assay as described above and fluorescence measured on an Envision model 2102 multilabel plate reader (Perkin Elmer).

In assay [4] the test system is NOD1. Briefly: IL-8 secretion induced by NOD1 over-expression (BacMam) in HEK293T cells with or without iE-DAP. The protocol: Over-expression of NOD1 and NOD2 was achieved by transduction of HEK293T cells with either NOD1 or NOD2 BacMam recombinant baculoviruses. […] The effect of compounds on activator-independent NOD1/2 signaling was determined by 30 minute pre-treatment of cells (in 96-well plates seeded the previous day in DMEM high glucose with 10% FBS at 60,000 cells/well) followed by infection with NOD1 or NOD2 BacMam virus (MOI = 50). IL-8 was measured in conditioned medium after 24 hour incubation at 37 °C. To determine the effect of compounds on NOD1/2 activator-dependent IL-8 secretion in BacMam transduced HEK293T, the cells were infected with virus for 6 hours (MOI = 50), and following the removal of virus the cells were cultured over-night. The next day medium was again replaced and cells pre-treated with compound for 30 minutes followed by stimulation with either MDP (30 ng/mL) or iE-DAP (300 ng/mL). IL-8 was measured in conditioned medium by HTRF after 24-hour incubation at 37 °C.

Assay [5] has as its system NOD2. Kind of assay: ssRNA-induced IFNβ gene expression in 293/hNOD2 cells (real-time RT-PCR). The following applies: GSK669 0.16–16 μM, RIP2 inhibitor 0.1 μM, mRNA after 6 hours. The protocol: Cells seeded in 96-well plates at sub-confluent density (60,000/well) in DMEM + 1% FBS were transfected for 6 hours with ssRNA40 (1.25–6.67 μg/mL) using lipofectamine 2000 (Invitrogen) and RNA/liposome complexes prepared in Opti-MEM1 medium (Invitrogen). Induction of IFNβ gene expression was measured by real-time reverse transcription PCR (Taqman). RNA was isolated from cell extracts in Trizol (Invitrogen) using the RNeasy kit (Qiagen), and mRNA quantified following reverse transcription and PCR amplification using Taqman reverse transcription and Taqman PCR core reagent kits, pre-formulated primer/probe mixes and ABI 7900 sequence detection system (Applied Biosystems). Expression of IFNβ (ABI primer/probe mix Hs01077958_s1) was normalized to 18S ribosomal RNA.
(In general: Real-time PCR tracks product formation cycle by cycle.)

“Also recorded” adds a separate entry of the source. Where two headings read alike, the source gives them in different places.

Consider `O=C(Cn1c(CCNC(=O)c2ccccc2)nc2ccccc21)Nc1ccc2c(c1)CCC2` [Compound 1, N-(2-(1-(2-((2,3-dihydro-1H-inden-5-yl)amino)-2-oxoethyl)-1H-benzo[d]imidazol-2-yl)ethyl)benzamide], for which the IC50 with NOD2 [1] (read-out: IC50 293/hNOD2 MDP) was 3.2 µM; with NOD2 [1] (MDP-stimulated IL-8 production assay in 293/hNOD2 cells, Figures 4 and 5, read-out: NOD2 IC50) it was 3.3 ± 1.6 µM; in the assay with NOD1 [2] (Homo sapiens, read-out: IC50 293/hNOD1 iE-DAP, IL-8 end-point) it was over 30 µM; in the assay with NOD1 [2] (read-out: IC50 293/hNOD1 iE-DAP, IL-8 end-point, listed as GSK669 (1)) it was over 50 µM; in the assay with NOD1 [3] (Homo sapiens, HCT-116, IL-8 end-point, 25 μg/mL Tri-DAP), over 50 µM. For the same molecule, in the assay with NOD2 [1] (all selectivity assays vs NOD2 IC50), the “fold less active in the selectivity assays than on the NOD2 pathway” value is listed as “at least 10 fold”. The “effect on IL-8 secretion induced by Tri-DAP in HCT116 cells” value in the assay with NOD1 [3] (Tri-DAP 25 μg/mL, 1 hour pre-treatment) is listed as “had no effect”. Also, the “effect on IL-8 secretion induced by NOD1 virus alone, single concentration” value in the assay on NOD1 [4] (MOI 50, 24 hours, GSK669 5 μM, IKK inhibitor 0.5 μM) is on record as “failed to block IL-8 secretion”. In addition, in the assay with NOD1 [4] (in the presence or absence of iE-DAP), the “effect on IL-8 secretion induced by over-expression of NOD1” value was “had no effect”. In addition, in the assay with NOD2 [5], the “effect on ssRNA-induced IFNβ expression” value is “unaffected; also recorded: did not block”.
